For nine molecules, IC50 results are on record in patent EP0359439A1, “Substituted pyridazinones” (ORION-YHTYMÄ OY, priority 1988, dated 1990).

pIC50: −log10 of the molar value. Several values for one entry are separate records, joined by “and”; a condition that tells them apart may be missing. Equal values may be shown once.

The assay has as its target Canine Cardiac Phosphodiesterase III. In words: Inhibition of Canine Cardiac Phosphodiesterase III enzyme. Format: biochemical. The note with it: concentration showing 50% inhibition of Canine Cardiac Phosphodiesterase III enzyme; read-out: IC₅₀. The text has this: In Table 5 the concentration of the compounds showing 50% inhibition of Canine Cardiac Phosphodiesterase III enzyme is given.
Turning to `CCC(=Nc1ccc(C2=NNC(=O)CC2)cc1)c1ccc(O)cc1O` [Compound E, 6-[4-(1-(2,4-Dihydroxyphenyl)propylidene)aminophenyl]-4,5-dihydropyridazin-3(2H)one], the pIC50 was 6.41. Then `CC(=Nc1ccc(C2=NNC(=O)CC2C)cc1)c1ccc(O)cc1O` (stereo not drawn) [Compound D, 6-[4-(1-(2,4-Dihydroxyphenyl)ethylidene)aminophenyl]-4,5-dihydro-5-methylpyridazin-3(2H)one], with 7.22 and 7.00; and `COc1ccc(-c2nc3cc(C4=NNC(=O)CC4C)ccc3[nH]2)cc1` (stereo not drawn) [Pimobendan, 4,5-Dihydro-6-(2-(4-methoxyphenyl)-1H-benzimidazol-5-yl)-5-methyl-3(2H)-pyridazinone, reference compound], with 5.70 and 5.82. Then `O=C1CCC(c2ccc(N=C(c3ccccc3)c3ccc(O)cc3O)cc2)=NN1` [Compound C], with 7.72; and `CC(=Nc1ccc(-c2ccc(=O)[nH]n2)cc1)c1ccc(O)cc1O` [Compound H, 6-[4-(1-(2,4-Dihydroxyphenyl)ethylidene)aminophenyl]pyridazin-3(2H)one], with 6.85.

Consider `O=C1CCC(c2ccc(N=Cc3ccc(O)cc3O)cc2)=NN1` [Compound A, 6-[4-(2,4-Dihydroxyphenyl)methyleneaminophenyl]-4,5-dihydropyridazin-3(2H)one], for which the pIC50 is 5.77. Then `CC1(C)C(=O)Nc2cc3nc(-c4ccncc4)[nH]c3cc21` [BM 14.478, 5,7-Dihydro-7,7-dimethyl-2-(4-pyridinyl)-pyrrolo-(2,3-f)benzimidazol-6(1H)-one, reference compound], with 6.03; and `O=C1CCC(c2ccc(N=Cc3c(O)ccc4ccccc34)cc2)=NN1` [Compound F, 6-[4-(2-hydroxynaphtyl)methyleneaminophenyl]-4,5-dihydropyridazin-3(2H)one], with less than 5.00; and `O=C1CCC(c2ccc(N=C(CCc3ccccc3)c3ccc(O)cc3O)cc2)=NN1` [Compound L, 6-[4-(1-(2,4-dihydroxyphenyl)-3-phenylpropylidene)aminophenyl]-4,5-dihydropyridazin-3(2H)one], with 8.70.
